Source: US20070286886A1, “Materials And Methods For Inducing Apoptosis In Adipocytes” (University of Tennessee Research Foundation, priority 2004, published 2007)
Entries after “also recorded” stand apart in the source; their conditions may differ.

Tests used:
Assay type in all cases: cell-based
[1] = test system: 3T3-L1 and UCP2-transfected 3T3-L1 adipocytes; test: Mitochondrial calcium (rhod-2 AM fluorescence) in adipocytes
Protocol: (§1) Rhod-2/AM was used for qualitative measurement of [Ca^2+]m. Cells were incubated with the Ca^2+-sensitive fluorescent indicator rhod-2 AM (1-1.5 μM) for at least 1 h at 37° C. in 5% CO2 in humidified air. Because rhod-2 AM consists of a cationic rhodamine molecule, it accumulates preferentially inside the mitochondria due to their negative membrane potential. After loading, the cells were kept in rhod-2 AM-free standard solution for at least 1 h to allow conversion of the dye to its Ca^2+-sensitive, free acid form. Images of [Ca^2+]m were acquired at the wavelength of 552 nm excitation and 590 nm emission using the intracellular imaging system described above. Because rhod-2 is not a ratiometric dye, its fluorescence intensity was not calibrated to obtain absolute values of [Ca^2+]m. Instead, only relative values were recorded as fluorescence signal (F) relative to the control value (F0). After baseline calcium concentration was measured, the 1α,25-(OH)2-D3 was immediately applied to the cells and the calcium concentration was measured again.
as §1, with “the Ca^2+ sensitive” for “the Ca^2+-sensitive”, “AM (1-1·5 μM),” for “AM (1-1.5 μM)”, “at 370 degrees Celsius” for “at 37° C.”, “air. Since” for “air. Because”, “above. Since” for “above. Because”, “(F0).” for “(F0). After baseline calcium concentration was measured, the 1α,25-(OH)2-D3 was immediately applied to the cells and the calcium concentration was measured again.”

caspase-3 = test: Caspase-3 mRNA expression by real-time PCR in 3T3-L1 and UCP2-transfected 3T3-L1 adipocytes
Protocol: 3T3-L1 preadipocytes were incubated at a density of 8000 cells/cm2 (10 cm2 dish) and grown in Dulbecco's modified Eagle's medium (DMEM) containing 10% FBS and antibiotics (adipocyte medium) at 37° C. in 5% CO2 in air. Confluent preadipocytes were induced to differentiate with a standard differentiation medium consisting of DMEM-F10 (1:1, vol/vol) medium supplemented with 1% FBS, 1 μM dexamethasone, IBMX (0.5 mM), and antibiotics (1% penicillin-streptomycin). Preadipocytes were maintained in this differentiation medium for 3 days and subsequently cultured in adipocyte medium. Cultures were re-fed every 2-3 days to allow 90% cells to reach full differentiation before they were chemically treated. Chemicals were freshly diluted in adipocyte medium before treatment. Cells were washed with fresh adipocyte medium, re-fed with medium containing the different treatments, and incubated at 37° C. in 5% CO2 in air before analysis. Cell viability was measured via trypan blue exclusion.
UCP2 full-length cDNAs were amplified by […] using mRNAs isolated from mouse white adipose tissues. The PCR primers for this amplification are shown as follows: UCP2 forward, 5′-[…]-3′, reverse, 5′-[…]-3′. The PCR products were then subcloned into pcDNA4/His expression vectors. The linearized constructs were transfected into 3T3-L1 preadipocytes using lipofectamine plus standard protocol (Invitrogen, Carlsbad, Calif.). After 48 h of transfection, cells were split and cultured in selective medium containing 400 ug/ml zeocin for the selection of resistant colonies. Cells were fed with selective medium every 3 days until resistant colonies could be identified. These resistant foci were picked, expanded, tested for expression, and frozen for future experiments.
A total cellular RNA isolation kit (Ambion, Austin, Tex.) was used to extract total RNA from 3T3-L1 cells according to the manufacturer's instructions.
Adipocyte caspase-1, caspase-3, Bcl-2, and Bax mRNA were quantitatively measured using a Smart Cycler Real Time PCR System (Cepheid, Sunnyvale, Calif.) with a TaqMan 1000 Core Reagent Kit (Applied Biosystems, Branchburg, N.J.). The primers and probe sets were ordered from Applied Biosystems TaqMan Assays-on-Demand Gene Expression primers and probe set collection according to the manufacturer's instructions. Pooled 3T3-L1 adipocyte total RNA was serial-diluted in the range of 1.5625-25 ng and used to establish a standard curve; total RNAs for unknown samples were also diluted in this range. Reactions of quantitative RT-PCR for standards and unknown samples were Cepheid, Sunnyvale, Calif.) and TaqMan Real Time PCR Core Kit. The mRNA quantitation for each sample was further normalized using the corresponding 18 s quantitation, with a forward primer, 5′-[…]-3′, and a reverse primer, 5′-[…]-3′.
3T3-L1 preadipocytes were incubated at a density of 8000 cells/cm2 (10 cm2 dish) and grown in Dulbecco's modified Eagle's medium (DMEM) containing 10% FBS and antibiotics at 37° C. in 5% CO2. Confluent preadipocytes were induced to differentiate with a standard differentiation medium consisting of DMEM-F 10 (1:1, vol/vol) medium supplemented with 1% FBS, 1 μM dexamethasone, IBMX (0.5 mM) and antibiotics (1% penicillin/streptomycin). Preadipocytes were maintained in this differentiation medium for 3 days and subsequently cultured in adipocyte medium. Cultures were re-fed every 2-3 days to allow 90% cells to reach fully differentiation before conducting chemical treatment. Chemicals were freshly diluted in adipocyte medium before treatment. Cells were washed with fresh adipocyte medium, re-fed with medium containing the different treatments, and incubated at 37° C. in 5% CO2 in air before analysis. Cell viability was measured via trypan blue exclusion.
Adipocytes were incubated with adipocyte medium for 24 h with or without GDP, BK 8644, GDP plus BK8644 before total RNA extraction. […]

[2] = test system: 3T3-L1 and UCP2-transfected 3T3-L1 cells; test: Mitochondrial membrane potential (JC-1 fluorometry) in adipocytes; conditions: for mitochondrial potential: 4 h
Protocol: (§2) Adipocytes were incubated with adipocyte medium for 4 h with or without 1α,25-(OH)2-D3. Mitochondrial membrane potential was analyzed fluorometrically with a lipophilic cationic dye JC-1 (5,5′,6,6′-tetrachloro-1,1′,3,3′-tetraethylbenzimidazol carbocyanine iodide) using a mitochondrial potential detection kit (Biocarta, San Diego, Calif.). Mitochondrial potential was determined as the ratio of red fluorescence (excitation 550 nm, emission 600 nm) and green fluorescence (excitation 485 nm, emission 535 nm) using a fluorescence microplate reader.
as §2, with “GDP, BK 8644, GDP plus BK8644.” for “1α,25-(OH)2-D3.”

C=C1/C(=C\C=C2/CCC[C@]3(C)[C@@H]([C@H](C)CCCC(C)(C)O)CC[C@@H]23)C[C@@H](O)C[C@@H]1O [1α,25-(OH)2-D3, 1α,25-dihydroxyvitamin D3]
mitochondrial calcium [Ca2+]m ([1]; high dose (100 nM)): significantly stimulated | increase of mitochondrial Ca2+ ([1]; high dose (100 nM), P<0.05): 25% | mitochondrial calcium [Ca2+]m ([1]; low doses (0.1 nM to 10 nM), control and UCP2-transfected cells): decreased; also recorded: significant decreases | suppression of mitochondrial Ca2+ levels ([1]; physiological doses (0.1-10 nM)): ~50% | caspase-3 expression (caspase-3; high dose 100 nM, 24 h, control and UCP2-transfected 3T3-L1 cells, P<0.01): stimulated | caspase-3 expression (caspase-3; physiological low doses 0.1 nM, 1 nM, 5 nM, 10 nM, 24 h, control and UCP2-transfected 3T3-L1 cells, P<0.05): inhibited | mitochondrial potential ([2]; high dose (100 nM)): collapse | mitochondrial potential ([2]; lower doses, 3T3-L1 and UCP2 stably transfected 3T3-L1 cells): significantly increase | mitochondrial Δψ in L1-UCP2 cells ([2]; physiological doses (0.1-10 nM), L1-UCP2 cells): restored

COC(=O)C1=C(C)NC(C)=C([N+](=O)[O-])C1c1ccccc1C(F)(F)F (stereo not drawn) [Bay K 8644]
mitochondrial calcium ([1]; 3T3-L1 cells, p<0.05): increased | caspase-3 expression (caspase-3; 3T3-L1 cells, Bay K 8644 5-100 nM range of FIG. 15): dose-dependently | effect on mitochondrial potential ([2]; 3T3-L1 cells, BK8644 alone): no effect
